Test results: PubChem BioAssay (NCI)
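A five-concentration, 48-hour dose response in 96-well plates underlies each endpoint, interpolated linearly between surrounding concentrations. Definition used: TGI = concentration required for complete inhibition of growth.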

Assays:
Test in all cases: growth of human tumour cells (NCI), 48 h
HCT-116 colon = tested on: HCT-116 colon
T-47D breast = tested on: T-47D breast
COLO 205 colon = tested on: COLO 205 colon
SF-295 CNS = tested on: SF-295 CNS
SK-MEL-5 melanoma = tested on: SK-MEL-5 melanoma
EKVX NSCLC = tested on: EKVX NSCLC
HT29 colon = tested on: HT29 colon
HS 578T breast = tested on: HS 578T breast
MCF7 breast = tested on: MCF7 breast
U251 CNS = tested on: U251 CNS
HOP-92 NSCLC = tested on: HOP-92 NSCLC
SK-MEL-28 melanoma = tested on: SK-MEL-28 melanoma
HCC-2998 colon = tested on: HCC-2998 colon
IGROV1 ovarian = tested on: IGROV1 ovarian
NCI-H522 lung = tested on: NCI-H522 lung
TK-10 renal = tested on: TK-10 renal
SK-MEL-2 melanoma = tested on: SK-MEL-2 melanoma
CAKI-1 renal = tested on: CAKI-1 renal
NCI-H460 lung = tested on: NCI-H460 lung
RXF 393 renal = tested on: RXF 393 renal
SNB-75 CNS = tested on: SNB-75 CNS
CCRF-CEM leukemia = tested on: CCRF-CEM leukemia
NCI/ADR-RES ovarian = tested on: NCI/ADR-RES ovarian
SF-268 CNS = tested on: SF-268 CNS
NCI-H23 lung = tested on: NCI-H23 lung
A549 NSCLC = tested on: A549 NSCLC
UACC-257 melanoma = tested on: UACC-257 melanoma
NCI-H226 lung = tested on: NCI-H226 lung
SK-OV-3 ovarian = tested on: SK-OV-3 ovarian
OVCAR-5 ovarian = tested on: OVCAR-5 ovarian
K-562 leukemia = tested on: K-562 leukemia
SR leukemia = tested on: SR leukemia
ACHN renal = tested on: ACHN renal
MALME-3M melanoma = tested on: MALME-3M melanoma
UACC-62 melanoma = tested on: UACC-62 melanoma
M14 melanoma = tested on: M14 melanoma
DU-145 prostate = tested on: DU-145 prostate
HL-60(TB) leukemia = tested on: HL-60(TB) leukemia
MDA-MB-435 = tested on: MDA-MB-435
SF-539 CNS = tested on: SF-539 CNS
PC-3 prostate = tested on: PC-3 prostate
KM12 colon = tested on: KM12 colon
786-0 renal = tested on: 786-0 renal
SW-620 colon = tested on: SW-620 colon
OVCAR-4 ovarian = tested on: OVCAR-4 ovarian
OVCAR-8 ovarian = tested on: OVCAR-8 ovarian
OVCAR-3 ovarian = tested on: OVCAR-3 ovarian
HCT-15 colon = tested on: HCT-15 colon
MOLT-4 leukemia = tested on: MOLT-4 leukemia
UO-31 renal = tested on: UO-31 renal
HOP-62 NSCLC = tested on: HOP-62 NSCLC
SNB-19 CNS = tested on: SNB-19 CNS
SN12C renal = tested on: SN12C renal
MDA-MB-231 breast = tested on: MDA-MB-231 breast

## O=c1[nH]c(=O)n(Cc2ccccc2CO)cc1Sc1ccccc1
HCT-116 colon
  TGI: 64.7 µM
T-47D breast
  TGI: > 100 µM
COLO 205 colon
  TGI: > 100 µM
SF-295 CNS
  TGI: > 100 µM
SK-MEL-5 melanoma
  TGI: 26.7 µM
EKVX NSCLC
  TGI: 60.8 µM
HT29 colon
  TGI: > 100 µM
HS 578T breast
  TGI: 60.6 µM
MCF7 breast
  TGI: > 100 µM
U251 CNS
  TGI: > 100 µM
HOP-92 NSCLC
  TGI: > 100 µM
SK-MEL-28 melanoma
  TGI: > 100 µM
HCC-2998 colon
  TGI: 30.8 µM
IGROV1 ovarian
  TGI: 29 µM
NCI-H522 lung
  TGI: 3.81 µM
TK-10 renal
  TGI: > 100 µM
SK-MEL-2 melanoma
  TGI: 45.8 µM
CAKI-1 renal
  TGI: 27.2 µM
NCI-H460 lung
  TGI: > 100 µM
RXF 393 renal
  TGI: 80.9 µM
SNB-75 CNS
  TGI: > 100 µM
CCRF-CEM leukemia
  TGI: > 100 µM
NCI/ADR-RES ovarian
  TGI: 81 µM
SF-268 CNS
  TGI: 70.6 µM
NCI-H23 lung
  TGI: 39.9 µM
A549 NSCLC
  TGI: 43.2 µM
UACC-257 melanoma
  TGI: 72.4 µM
NCI-H226 lung
  TGI: 43.8 µM
SK-OV-3 ovarian
  TGI: > 100 µM
OVCAR-5 ovarian
  TGI: > 100 µM
K-562 leukemia
  TGI: > 100 µM
SR leukemia
  TGI: > 100 µM
ACHN renal
  TGI: 96.4 µM
MALME-3M melanoma
  TGI: 41.5 µM
UACC-62 melanoma
  TGI: > 100 µM
M14 melanoma
  TGI: 41.2 µM
DU-145 prostate
  TGI: > 100 µM
HL-60(TB) leukemia
  TGI: > 100 µM
MDA-MB-435
  TGI: 45.2 µM
SF-539 CNS
  TGI: 93.9 µM
PC-3 prostate
  TGI: > 100 µM
KM12 colon
  TGI: > 100 µM
786-0 renal
  TGI: > 100 µM
SW-620 colon
  TGI: > 100 µM
OVCAR-4 ovarian
  TGI: > 100 µM
OVCAR-8 ovarian
  TGI: 48.2 µM
OVCAR-3 ovarian
  TGI: 42.2 µM
HCT-15 colon
  TGI: 53.5 µM
MOLT-4 leukemia
  TGI: > 100 µM
UO-31 renal
  TGI: 22.9 µM
HOP-62 NSCLC
  TGI: > 100 µM
SNB-19 CNS
  TGI: > 100 µM
SN12C renal
  TGI: > 100 µM
MDA-MB-231 breast
  TGI: 33.8 µM
